Experimental findings from US20160311795A1, “PYRIMIDINE DIAMINE DERIVATIVES AS INHIBITORS OF CYTOSOLIC HSP90” (CALASIA PHARMACEUTICALS, INC., priority 2012, published 2016) are described below.

The test system of one assay is LnCaP cells. As to the kind of experiment: Tumor cell viability, ATPlite. The assay is classed as cell-based. The note with it: Homo sapiens, 72 h, read-out: EC50, decrease in cell viability. The method, then: Akt1 levels in the cell lysates were measured using kits from R&D Systems used according to the manufacturer's recommendations. Cell lysates were assayed at a 1:24 dilution for the Akt1 ELISA. The Akt1 concentrations in the cell lysates were extrapolated from the standard curve and corrected for lysate protein concentration. Akt1 levels were determined using a micro-titer plate reader (Model #Synergy HT; BioTek Inc., Winooski, Vt.). LnCaP cells were cultured in culture medium and passaged after lifting using 0.25% trypsin/EDTA. LnCaP cells were seeded into a 96 well tissue culture plate at 1.3×10^4 cells per well in a volume of 100 uL of culture medium. […] Caspase 3/7 activity was measured using a Homogeneous Caspase 3/7 Assay Kit used according to the manufacturer's recommendations. In detail, an equal volume of Caspase 3/7 Assay Kit reagent was added to the wells and fluorescence readings (Ex/Em 485/528) were taken after 3, 6, and 23 h at ambient temperature using a micro-titer plate reader. […] Fluorescence intensities of the dilutions were measured to obtain a standard curve. […] Cell viability was measured with the ATPlite Kit used according to the manufacturer's recommendation. […] Cultures were mixed at 1,000 rpm for 2 min in the dark and luminescence quantification was accomplished using a micro-titer plate reader (POLARstar Omega micro-titer plate reader; BMG Labtech).

A further assay deals with MDA-MB-231. Nature of the assay: Cell viability / efficacy in breast cancer cells. It is filed as cell-based. The procedure: The effect of SBI-0640725 on cell viability was determined by measuring cellular dehydrogenase activity (U251MG and MBA-MD-231 cells) or by measuring ADP levels (HepG2) after treating cells for 72 hours with increasing concentrations of SBI-0640725. To measure dehydrogenase activity, CCK-8 kit reagent (Dojindo) was added to the wells and incubated for 2 hours, after which absorbance was measured at 450 nm using a Synergy HT micro-titer plate reader (Biotek). To measure ADP levels, ADP-GLO reagent (Life Technologies) was added to the wells, and luminescence was measured after a 30 minute incubation using a POLARstar Omega micro-titer plate reader (BMG).
The table below summarizes efficacy of SBI-0640725 in various cancer cell lines, including U251MG, MDA-MB-231, and HepG2, using ADP-GLO assay described above. As used herein “efficacy” (EC50) is the concentration of a compound that produces half-maximal response in a cellular assay.

The subject of assay [1] is Caspase 3/7 activity in U251MG cells. As to the kind of experiment: Cellular Caspase-3/7 luminescence assay. It is filed as cell-based, human. The following applies: 72 hours. The procedure:
(§1) Further, the effect of SBI-0640725 on cellular caspase levels was also quantitated in U251MG, MBA-MD-231 and HepG2 cells. Each cell type was treated with increasing concentrations of SBI-0640725 for 72 hours. Quantification of total cellular Caspase-3 and 7 activity was accomplished using a Caspase-3/7 luminescence assay kit (Promega) according to the manufacturer's recommendations, and analyzed with a POLARstar Omega micro-titer plate reader (BMG). […] Caspase activity is a marker for apoptotic cell death.

Assay [2] deals with Caspase 3/7 activity in HepG2 cells. As to the kind of experiment: Cellular Caspase-3/7 luminescence assay. The following applies: HepG2, 72 hours. The assay is classed as cell-based. The method, then:
as §1

For assay [3], the system named is Caspase 3/7 activity in MBA-MD-231 cells. As to the kind of experiment: Cellular Caspase-3/7 luminescence assay. It is filed as cell-based. The following applies: MBA-MD-231, 72 hours. The procedure:
as §1

In another assay the test system is Akt1 in U251MG cells. As to the kind of experiment: Hsp90 client protein stability, Akt1 ELISA. The note with it: 48 hours, increasing concentrations. It is filed as cell-based, human. The procedure:
In further experiments, the effect of SBI-0640725 on the stability of Hsp90 client proteins was analyzed. […] Akt1 protein levels were measured in cell lysates using ELISA.

A further assay concerns U251MG cells. Nature of the assay: Mitochondrial stress response, oxygen consumption rate (OCR). The note with it: FCCP as inducer of stress. The assay is classed as cell-based, human. The procedure:
In further experiments, the effect of SBI-0640725 on mitochondrial stress response in U251MG cells was determined by measuring the mitochondrial oxygen consumption rate (OCR). The OCR was measured in real time, both before, and after treating U251 MG cells with increasing concentrations of SBI-0640725. The time of compound addition is indicated in FIG. 15A by the vertical line labeled D. Mitochondrial bioenergetics stress was determined by treating the cells sequentially with 0.125 mg/ml oligomycin (OA; vertical line O), […] carbonyl cyanide-4-(trifluoromethoxy)phenylhydrazone (FCCP; vertical line F) and […] rotenone (vertical line R) while continuing OCR measurement. Oligomycin (OA) generates mitochondrial stress by inhibiting ATP synthase and FCCP uncouples mitochondrial oxidative phosphorylation. The OCR data shown in FIG. 15A is presented in FIG. 15B after normalization using cell protein concentration, and subtracting extra-mitochondrial respiration, as determined by the respiration observed upon addition of rotenone. These experiments tested whether SBI-0640725 could inhibit the ability of mitochondria to compensate for these stressors. […] FCCP dissipates the electrochemical gradient that drives ATP synthesis. Thus, in order to maintain the membrane potential, mitochondria needs to increase the flow of electrons, thereby reflecting an increase in the OCR.

Assay [4] has as its system mitochondria isolated from U251MG cells. Nature of the assay: Mitochondrial membrane potential in isolated TMRE-loaded mitochondria. The note with it: 10 μM or 2 μM, 30° C. The assay is classed as cell-based, human. The procedure: Additional experiments were performed to determine the effect of SBI-0640725 on mitochondrial integrity. U251MG cells were treated with tetramethylrhodamine ethyl ester (TMRE), and fluorescence was visualized using fluorescence confocal microscopy (FIG. 16 panel A), or quantitated using a fluorimeter (FIG. 16 panel B) after cells had been treated with increasing concentrations of SBI-0640725 for 48 hours. […] In experiments using isolated mitochondria, mitochondrial membrane potential was determined as a measure of mitochondrial integrity. TMRE-loaded mitochondria isolated from U251MG cells were treated with either 10 μM (left bar of the pair in FIG. 17) or 2 μM (right bar of the pair in FIG. 17) SBI-0640725 while continually monitoring changes in fluorescence intensity at 30° C.

`COc1c(C)cnc(CN(CCc2ccccc2)c2cc(Cl)nc(N)n2)c1C` [SBI-0639353, 6-Chloro-N4-((4-methoxy-3,5-dimethylpyridin-2-yl)methyl)-N4-phenethylpyrimidine-2,4-diamine]: the concentration for a half-maximal effect (EC50) with LnCaP cells is 3.8 µM.
Regarding `COc1c(C)cnc(CN(CCc2ccc(F)cc2)c2cc(Cl)nc(N)n2)c1C` [SBI-0640725], the 50% effective concentration (EC50) in the assay on MDA-MB-231 (Homo sapiens, Breast Cancer, MDA-MB-231, ADP-GLO) worked out at 2.4 µM. For the same compound, the cell viability entry with MDA-MB-231 (MBA-MD-231, 72 hours, dehydrogenase activity (CCK-8)) was “reduction in cell viability”. For the same compound, the “Caspase 3/7 activity” value in assay [1], in assay [2] and in assay [3] was “increase in Caspase 3/7 activity” each time. Besides, the “levels of the client protein Akt1” value in the assay on Akt1 in U251MG cells is reported as “progressive decrease in the levels of the client protein Akt1”. Also, the “mitochondrial stress response (OCR)” value in the assay with U251MG cells is recorded as “significantly inhibit the ability of mitochondria to compensate for stress”. In addition, the mitochondrial membrane potential entry in assay [4] is “mitochondrial membrane potential decreased”.
